Assay results from US20240041042A1, “1-(PYRIDYL)-5-AZINYLPYRAZOLE DERIVATIVES, AND THEIR USE FOR CONTROL OF UNDESIRED PLANT GROWTH” (Bayer Aktiengesellschaft, priority 2020, published 2024).

Key:
Assay type in all cases: in vivo
[1] = test system: Echinochloa crus-galli (ECHCG); test: Post-emergence herbicidal action against ECHCG
In short: (§1)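 Doses of 320 g/ha or lower, suffixes a, b and c marking different dosages, were applied post-emergence at the one-leaf stage in 600 l/ha water with 0.5% additive. Damage was assessed visually after about 3 weeks in the greenhouse.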

Avena fatua (AVEFA) [2] = test: Post-emergence herbicidal action against AVEFA; settings: visual rating about 3 weeks after treatment
In short: as §1

[3] = test system: Pharbitis purpurea (PHBPU); test: Post-emergence herbicidal action against PHBPU
In short: as §1

[4] = test system: Pharbitis purpurea (PHBPU); test: Pre-emergence herbicidal action against PHBPU; settings: dosage 320 g/ha
In short: (§2)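 Application rates ran to 320 g/ha or lower, with several dosages tested on the same weeds. The compound, as wettable powder or emulsion concentrate, is sprayed pre-emergence onto soil over sown seeds; greenhouse growth follows, and effect is rated visually after roughly 3 weeks.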

[5] = test system: Amaranthus retroflexus (AMARE); test: Pre-emergence herbicidal action against AMARE; settings: visual scoring after about 3 weeks vs untreated controls
In short: as §2

[6] = test system: Matricaria inodora (MATIN); test: Post-emergence herbicidal action against MATIN
Experimental: Seeds of monocotyledonous and dicotyledonous weeds and crop plants are placed in sandy loam in plastic or organic planting pots, covered with soil and cultivated in a greenhouse under controlled growth conditions. 2 to 3 weeks after sowing, the test plants are treated at the one-leaf stage. The compounds of the invention, formulated in the form of wettable powders (WP) or as emulsion concentrates (EC), are then sprayed onto the green parts of the plants as aqueous suspension or emulsion with addition of 0.5% additive at a water application rate of 600 l/ha (converted). After the test plants have been kept in the greenhouse under optimum growth conditions for about 3 weeks, the activity of the preparations is rated visually in comparison to untreated controls. For example, 100% activity=the plants have died, 0% activity=like control plants.
Tables B1 to B13 below show the effects of selected compounds of the general formula (I) according to Table 1 on various harmful plants and at an application rate corresponding to 320 g/ha or lower, which were obtained by the experimental procedure mentioned above. The appendices “a”, “b” and “c” give differentiation by dosage used with otherwise the same harmful plants tested.

[7] = test system: Verconica persica (VERPE); test: Post-emergence herbicidal action against VERPE
In short: as §1

Avena fatua (AVEFA) [8] = test: Pre-emergence herbicidal action against AVEFA; settings: visual scoring after about 3 weeks vs untreated controls
In short: as §2

[9] = test system: Matricaria inodora (MATIN); test: Pre-emergence herbicidal action against MATIN; settings: dosage 320 g/ha
In short: as §2

[10] = test system: Polygonum convolvulus (POLCO); test: Pre-emergence herbicidal action against POLCO
In short: as §2

Viola tricolor (VIOTR) [11] = test: Post-emergence herbicidal action against VIOTR
In short: as §1

Setaria viridis (SETVI) [12] = test: Post-emergence herbicidal action against SETVI
In short: as §1

[13] = test system: Echinochloa crus-galli (ECHCG); test: Pre-emergence herbicidal action against ECHCG
In short: as §2

Viola tricolor (VIOTR) [14] = test: Pre-emergence herbicidal action against VIOTR
In short: as §2

Setaria viridis (SETVI) [15] = test: Pre-emergence herbicidal action against SETVI
In short: as §2

Zea mays (ZEAMX) = settings: crop plant compatibility, 80 g/ha, effect vs untreated controls
In short: (§3)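 Greenhouse crops in sandy loam sprayed post-emergence at the one-leaf stage, 2–3 weeks after sowing, with WP or EC formulations in water plus 0.5% additive at 600 l/ha. Damage rated visually about 3 weeks later versus untreated controls (0% = like control, 100% = dead); suffixes a–c denote different doses.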

Lolium rigidum (LOLRI) [16] = test: Pre-emergence herbicidal action against LOLRI
In short: as §2

Lolium rigidum (LOLRI) [17] = test: Post-emergence herbicidal action against LOLRI
In short: as §1

[18] = test system: Alopecurus myosuroides (ALOMY); test: Pre-emergence herbicidal action against ALOMY; settings: scored visually after about 3 weeks, 100% = plants have died
In short: as §2

[19] = test system: Verconica persica (VERPE); test: Pre-emergence herbicidal action against VERPE
In short: as §2

[20] = test system: Alopecurus myosuroides (ALOMY); test: Post-emergence herbicidal action against ALOMY; settings: visual rating about 3 weeks after treatment vs untreated controls (100% = plants have died, 0% = like control plants)
In short: as §1

[21] = test system: Amaranthus retroflexus (AMARE); test: Post-emergence herbicidal action against AMARE
In short: as §1

Oryza sativa (ORYSA) = settings: crop plant compatibility, 80 g/ha, effect in comparison to untreated controls
In short: as §3

Row | Compound | Post-emergence action against ECHCG in % ([1]; dosage 320 g/ha) | Post-emergence action against AVEFA in % (Avena fatua (AVEFA) [2]; 320 g/ha) | Post-emergence action against PHBPU in % ([3]; dosage 320 g/ha) | Pre-emergence action against PHBPU in % [4] | Pre-emergence action against AMARE in % ([5]; 80 g/ha) | Pre-emergence action against AMARE in % ([5]; 320 g/ha) | Post-emergence action against MATIN in % ([6]; dosage 320 g/ha) | Post-emergence action against VERPE in % ([7]; 320 g/ha, VERPE) | Post-emergence action against VERPE in % ([7]; dosage 80 g/ha) | Pre-emergence action against AVEFA in % (Avena fatua (AVEFA) [8]; 320 g/ha) | Pre-emergence action against MATIN in % [9] | Pre-emergence action against POLCO in % ([10]; dosage 320 g/ha) | Post-emergence action against VIOTR in % (Viola tricolor (VIOTR) [11]; 320 g/ha) | Post-emergence action against SETVI in % (Setaria viridis (SETVI) [12]; dosage 320 g/ha) | Pre-emergence action against ECHCG in % ([13]; dosage 320 g/ha) | Pre-emergence action against VIOTR in % (Viola tricolor (VIOTR) [14]; 320 g/ha, Viola tricolor) | Pre-emergence action against SETVI in % (Setaria viridis (SETVI) [15]; dosage 320 g/ha) | Pre-emergence action against LOLRI in % (Lolium rigidum (LOLRI) [16]; dosage 320 g/ha) | Post-emergence action against LOLRI in % (Lolium rigidum (LOLRI) [17]; dosage 320 g/ha) | Pre-emergence action against ALOMY ([18]; 80 g/ha) | also measured
1 | CCOC(=O)COc1nn(-c2ncccc2C)c(-c2ccc(F)nc2)c1Cl [Example I-316] | 90% | 100% | 90% | 90% | 100% | 100% | 90% | 90% | 90% | 100% | 100% | 100% | 90% | 90% | 100% | 100% | 100% | 100% | 100% | 90% | Post-emergence action against ECHCG in % ([1]; dosage 80 g/ha): 90%; Post-emergence action against AVEFA in % (Avena fatua (AVEFA) [2]; 80 g/ha): 90%; Post-emergence action against PHBPU in % ([3]; dosage 80 g/ha): 90%; Post-emergence action against MATIN in % ([6]; dosage 80 g/ha): 80%; Pre-emergence action against POLCO in % ([10]; dosage 80 g/ha): 100%; Post-emergence action against VIOTR in % (Viola tricolor (VIOTR) [11]; 80 g/ha): 90%; Post-emergence action against SETVI in % (Setaria viridis (SETVI) [12]; dosage 80 g/ha): 90%; Pre-emergence action against ECHCG in % ([13]; dosage 80 g/ha): 100%; Pre-emergence action against VIOTR in % (Viola tricolor (VIOTR) [14]; dosage 80 g/ha): 100%; Pre-emergence action against SETVI in % (Setaria viridis (SETVI) [15]; dosage 80 g/ha): 100%; Post-emergence action against ZEAMX in % (Zea mays (ZEAMX)): 0%; Pre-emergence action against LOLRI in % (Lolium rigidum (LOLRI) [16]; dosage 80 g/ha): 100%; Post-emergence action against LOLRI in % (Lolium rigidum (LOLRI) [17]; dosage 80 g/ha): 100%; Pre-emergence action against ALOMY ([18]; 320 g/ha): 100%; Pre-emergence action against VERPE in % ([19]; dosage 320 g/ha): 100%; Post-emergence action against ALOMY in % ([20]; 80 g/ha): 100%; Post-emergence action against ALOMY in % ([20]; 320 g/ha): 100%
2 | CS(=O)(=O)CCOC(=O)COc1nn(-c2ccccn2)c(-c2ccc(F)nc2)c1Br [Example I-313] | 90% | 80% | 90% | 80% | 90% | 100% | 90% | 90% | 90% | 90% | 90% | 80% | 80% | 90% | 100% | 90% | 100% | 100% | 90% | 90% | Post-emergence action against PHBPU in % ([3]; dosage 80 g/ha): 90%; Post-emergence action against MATIN in % ([6]; dosage 80 g/ha): 80%; Post-emergence action against AMARE in % ([21]; 80 g/ha, visual rating about 3 weeks after treatment vs untreated controls (100% = plants have died, 0% = like control plants)): 80%; Post-emergence action against AMARE in % ([21]; 320 g/ha, visual rating about 3 weeks after treatment): 90%; Pre-emergence action against POLCO in % ([10]; dosage 80 g/ha): 80%; Post-emergence action against SETVI in % (Setaria viridis (SETVI) [12]; dosage 80 g/ha): 90%; Pre-emergence action against SETVI in % (Setaria viridis (SETVI) [15]; dosage 80 g/ha): 100%; Post-emergence action against ORYSA in % (Oryza sativa (ORYSA)): 10%; Pre-emergence action against ALOMY ([18]; 320 g/ha): 100%; Pre-emergence action against VERPE in % ([19]; dosage 80 g/ha): 80%; Pre-emergence action against VERPE in % ([19]; dosage 320 g/ha): 90%; Post-emergence action against ALOMY in % ([20]; 80 g/ha): 90%; Post-emergence action against ALOMY in % ([20]; 320 g/ha): 90%
3 | Cc1cccnc1-n1nc(OCC(=O)O)c(Cl)c1-c1ccc(F)nc1 [Example I-323] | 90% | 90% | 80% | 90% | 100% | 100% | 90% | 90% | 90% | 100% | 100% | 100% | 90% | 90% | 100% | 100% | 100% | 100% | 90% | 100% | Post-emergence action against ECHCG in % ([1]; dosage 80 g/ha): 90%; Post-emergence action against AVEFA in % (Avena fatua (AVEFA) [2]; 80 g/ha): 90%; Pre-emergence action against AVEFA in % (Avena fatua (AVEFA) [8]; 80 g/ha): 90%; Post-emergence action against VIOTR in % (Viola tricolor (VIOTR) [11]; 80 g/ha): 90%; Pre-emergence action against ECHCG in % ([13]; dosage 80 g/ha): 90%; Pre-emergence action against VIOTR in % (Viola tricolor (VIOTR) [14]; dosage 80 g/ha): 100%; Post-emergence action against ZEAMX in % (Zea mays (ZEAMX)): 0%; Pre-emergence action against LOLRI in % (Lolium rigidum (LOLRI) [16]; dosage 80 g/ha): 100%; Post-emergence action against LOLRI in % (Lolium rigidum (LOLRI) [17]; dosage 80 g/ha): 90%; Pre-emergence action against ALOMY ([18]; 320 g/ha): 100%; Pre-emergence action against VERPE in % ([19]; dosage 320 g/ha): 100%; Post-emergence action against ALOMY in % ([20]; 80 g/ha): 100%; Post-emergence action against ALOMY in % ([20]; 320 g/ha): 100%
